For this assay, the target named is b-Raf(V600E) (Homo sapiens, UniProt P15056, V600E). Briefly: Raf/Mek Amplified Luminescence Proximity Homogeneous Assay (Alpha Screen). It is filed as biochemical. Particulars: b-Raf(V600E) approximately 4 pM; biotinylated Mek, kinase dead approximately 10 nM; ATP 10 μM; pre-incubation 60 minutes; reaction 3 hours at room temperature; read-out: mut-bRaf IC50. How it is done: Raf/Mek Amplified Luminescence Proximity Homogeneous Assay
Assay buffer: 50 mM Tris, pH 7.5, 15 mM MgCl2, 0.01% Bovine Serum Albumin (BSA), 1 mM dithiothreitol (DTT) Stop buffer: 60 mM ethylenediaminetetraacetic acid (EDTA), 0.01% Tween® 20 Bead buffer: 50 mM Tris, pH 7.5, 0.01% Tween® 20 […]
biotinylated Mek, kinase dead
Alpha Screen detection kit (available from PerkinElmer™, #6760617R)
Anti phospho-MEK1/2 (available from Cell Signaling Technology, Inc. #9121) 384 well assay plates (White Greiner® plates, #781207) […]
b-Raf(V600E) approximately 4 pM […]
biotinylated Mek, Kinase dead approximately 10 nM
Pre-incubation time with compounds 60 minutes at room temperature
Reaction time 1 or 3 hours at room temperature
Raf and biotinylated Mek, kinase dead, were combined at 2× final concentrations in assay buffer (50 mM Tris, pH 7.5, 15 mM MgCl2, 0.01% BSA and 1 mM DTT) and dispensed 10 μl per well in assay plates (Greiner white 384 well assay plates #781207) containing 0.5 μl of 40× of a raf kinase inhibitor test compound diluted in 100% DMSO. The plate was incubated for 60 minutes at room temperature.
The Raf kinase activity reaction was started by the addition of 10 μL per well of 2×ATP diluted in assay buffer. After 3 hours (bRaf(V600E)) or 1 hour (c-Raf), the reactions were stopped with the addition of 10 μL of stop reagent (60 mM EDTA). Phosphorylated product was measured using a rabbit anti-p-MEK (Cell Signaling, #9121) antibody and the Alpha Screen IgG (ProteinA) detection Kit (PerkinElmer #6760617R), by the addition of 30 μL to the well of a mixture of the antibody (1:2000 dilution) and detection beads (1:2000 dilution of both beads) in bead buffer (50 mM Tris, pH 7.5, 0.01% Tween20). The additions were carried out under dark conditions to protect the detection beads from light. A lid was placed on top of the plate and incubated for 1 hour at room temperature, then the luminescence was read on a PerkinElmer Envision instrument. The concentration of each compound for 50% inhibition (IC50) was calculated by non-linear regression using XL Fit data analysis software.

Molecules are shown by their SMILES. pIC50: −log10 of the molar value.

b-Raf(V600E), sequence (P15056 whole entry V600E): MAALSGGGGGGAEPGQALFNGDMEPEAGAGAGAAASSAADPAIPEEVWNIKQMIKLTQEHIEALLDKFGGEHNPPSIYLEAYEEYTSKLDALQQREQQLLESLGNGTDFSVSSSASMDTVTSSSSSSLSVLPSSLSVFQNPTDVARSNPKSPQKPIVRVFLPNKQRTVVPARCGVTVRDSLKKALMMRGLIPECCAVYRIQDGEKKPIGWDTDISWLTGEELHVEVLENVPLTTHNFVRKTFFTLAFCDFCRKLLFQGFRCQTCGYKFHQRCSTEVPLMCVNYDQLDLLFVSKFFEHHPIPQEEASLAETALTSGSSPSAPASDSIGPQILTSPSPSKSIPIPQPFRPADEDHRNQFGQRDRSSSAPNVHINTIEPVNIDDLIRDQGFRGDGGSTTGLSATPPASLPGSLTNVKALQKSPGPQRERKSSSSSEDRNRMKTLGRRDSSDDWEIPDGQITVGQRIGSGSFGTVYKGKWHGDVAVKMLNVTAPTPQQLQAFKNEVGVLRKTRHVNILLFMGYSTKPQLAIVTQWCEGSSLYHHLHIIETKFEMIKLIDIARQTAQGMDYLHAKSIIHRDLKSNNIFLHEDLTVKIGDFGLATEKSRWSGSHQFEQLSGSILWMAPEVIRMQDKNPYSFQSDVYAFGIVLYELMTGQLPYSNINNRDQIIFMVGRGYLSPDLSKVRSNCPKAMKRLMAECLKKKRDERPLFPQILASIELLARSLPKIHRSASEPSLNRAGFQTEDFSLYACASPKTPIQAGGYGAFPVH

The pIC50 is the IC50 on a negative log10 scale, so that one unit is a factor of ten. `COC(=O)N[C@@H](C)CNc1nccc(-c2sc(C(C)(C)C)nc2-c2cc(F)cc(NS(C)(=O)=O)c2Cl)n1` [Example 1, (S)-methyl 1-(4-(2-tert-butyl-4-(2-chloro-5-fluoro-3-(methylsulfonamido)phenyl)thiazol-5-yl)pyrimidin-2-ylamino)propan-2-ylcarbamate]: the pIC50 is 9.60. In the case of `CCCS(=O)(=O)Nc1cc(F)cc(-c2nc(C(C)(C)C)sc2-c2ccncn2)c1Cl` [Example 2, N-(3-(2-tert-butyl-5-(pyrimidin-4-yl)thiazol-4-yl)-2-chloro-5-fluorophenyl)propane-1-sulfonamide], the pIC50 was 9.36.

For the molecule `COC(=O)N[C@@H](C)CNc1nccc(-c2sc(C3CC3)nc2-c2cc(F)cc(NS(C)(=O)=O)c2Cl)n1` [Example 3, (S)-methyl 1-(4-(4-(2-chloro-5-fluoro-3-(methylsulfonamido)phenyl)-2-cyclopropylthiazol-5-yl)pyrimidin-2-ylamino)propan-2-ylcarbamate], the negative-log IC50 (pIC50) is 9.66. The figure for `COC(=O)N[C@@H](C)CNc1nccc(-c2sc(C3CC3)nc2-c2cc(Cl)cc(NS(C)(=O)=O)c2F)n1` [Example 4, (S)-methyl 1-(4-(4-(5-chloro-2-fluoro-3-(methylsulfonamido)phenyl)-2-cyclopropylthiazol-5-yl)pyrimidin-2-ylamino)propan-2-ylcarbamate] is 9.92; for `COC(=O)N[C@@H](C)CNc1nccc(-c2oc(C3CC3)nc2-c2cc(Cl)cc(NS(C)(=O)=O)c2F)n1` [Example 5, (S)-methyl 1-(4-(4-(5-chloro-2-fluoro-3-(methylsulfonamido)phenyl)-2-cyclopropyloxazol-5-yl)pyrimidin-2-ylamino)propan-2-ylcarbamate] it is 9.09; for `CCCS(=O)(=O)Nc1cccc(-c2nc(C3CC3)oc2-c2ccnc(NC)n2)c1F` [Example 6, N-(3-(2-cyclopropyl-5-(2-(methylamino)pyrimidin-4-yl)oxazol-4-yl)-2-fluorophenyl)propane-1-sulfonamide] it is 7.55. For `CCCS(=O)(=O)Nc1cccc(-c2nc(C(C)(C)C)sc2-c2ccnc(NC[C@H](C)NC(=O)OC)n2)c1Cl` [Example 7, (S)-methyl 1-(4-(2-tert-butyl-4-(2-chloro-3-(propylsulfonamido)phenyl)thiazol-5-yl)pyrimidin-2-ylamino)propan-2-ylcarbamate], the negative logarithm of the IC50 (pIC50) is 9.66. In the case of `CCCS(=O)(=O)Nc1cc(F)cc(-c2nc(C(C)(C)C)sc2-c2ccnc(NC)n2)c1Cl` [Example 8], the negative logarithm of the IC50 (pIC50) was 9.85. For the molecule `CCCS(=O)(=O)Nc1cc(F)cc(-c2nc(C(C)(C)C)sc2-c2ccnc(N)n2)c1Cl` [Example 9], the pIC50 is 9.85.

As to `CCCS(=O)(=O)Nc1cc(F)cc(-c2nc(C(C)(C)C)sc2-c2ccnc(NC[C@H](C)NC(=O)OC)n2)c1Cl` [Example 10], the negative-log IC50 (pIC50) is 9.48.

Turning to `CNc1nccc(-c2sc(C(C)(C)C)nc2-c2cc(F)cc(NS(C)(=O)=O)c2Cl)n1` [Example 11], the negative-log IC50 (pIC50) is 8.22. Regarding `CC(C)(C)c1nc(-c2cc(F)cc(NS(C)(=O)=O)c2Cl)c(-c2ccnc(N)n2)s1` [Example 12], the negative logarithm of the IC50 (pIC50) was 8.05.

As to `CCCS(=O)(=O)Nc1cc(F)cc(-c2nc(C3CC3)sc2-c2ccnc(N)n2)c1Cl` [Example 13], the negative-log IC50 (pIC50) is 9.89. As for `CCCS(=O)(=O)Nc1cc(F)cc(-c2nc(C3CC3)sc2-c2ccnc(NC)n2)c1Cl` [Example 14], the negative logarithm of the IC50 (pIC50) was 10.04.

In the case of `CCCS(=O)(=O)Nc1cc(F)cc(-c2nc(C3CC3)sc2-c2ccnc(NC[C@H](C)NC(=O)OC)n2)c1Cl` [Example 15], the pIC50 was 10.11.

For `CS(=O)(=O)Nc1cc(F)cc(-c2nc(C3CC3)sc2-c2ccnc(N)n2)c1Cl` [Example 16], the pIC50 is 7.82.

With `CS(=O)(=O)Nc1cc(F)cc(-c2nc(C3CC3)oc2-c2ccnc(N)n2)c1Cl` [Example 17], the pIC50 was 8.57. On to `CNc1nccc(-c2oc(C3CC3)nc2-c2cc(F)cc(NS(C)(=O)=O)c2Cl)n1` [Example 18], for which the pIC50 was 7.74.

The values above are taken from US20130096149A1, “HETEROARYL COMPOUNDS AND COMPOSITIONS AS PROTEIN KINASE INHIBITORS” (NOVARTIS AG, priority 2010, published 2013).
